Reference: patent US20230357134A1, “AGENTS FOR USE IN THE TREATMENT OF AMYLOIDOSIS” (UCL BUSINESS LTD, priority 2020, published 2023)
pIC50: −log10 of the molar value.

Legend:
isolated wild type TTR = molecular target: T1, isolated wild type TTR (Homo sapiens, UniProt P02766); assay: Displacement of 125I-T4 from isolated wild type TTR in buffer; conditions: concentration of ligand reducing binding of 125I-T4 by TTR by 50%, 125 nM TTR, pH 8.0, overnight 4° C., mean of at least 3 replicates; for pIC50: read-out: D50 buffer
T1 construct: the non-covalently associated protomers, of mass 13,761, each contain 127 residues; His6 (N); TEV cleavage site (N); made in house; host or cells: E. coli BL21 (DE3)
Protocol: 3. Evaluation of Ligand Activity Based on Capacity to Displace ^125I-Thyroxine (T4) from TTR in Buffer/Human Plasma 3.1 Displacement of ^125I-T4 from Isolated Wild Type TR.
Competition of ligands with T4 for binding by TTR was assayed quantitatively by a previously described procedure (Kolstoe et al., 2010). Briefly, a solution of 125 nM TTR in 0.1 M Tris-HCl, 0.1 M NaCl and 0.001 M EDTA buffer, pH 8.0, was incubated overnight at 4° C. in the presence of 1.07 nM ^125I T4 (1,200 μCi/μg, 200 μCi/ml, Perkin Elmer) and increasing concentrations of inhibitor (0-5 μM) in 40 μl final volume. ^125I T4 bound by TTR was separated from unbound T4 by gel filtration chromatography using Micro Bio Spin 6 columns (Bio-Rad) previously equilibrated with the reaction buffer containing 1% w/v BSA. After counting with a Wizard2 gamma counter (Perkin-Elmer) for 60 s, percentage binding was plotted against the logarithm of the inhibitor concentration, and D50 (concentration of ligand reducing the binding of T4 by TTR by 50%) was determined using a four parameters dose-response curve with GraphPad Prism 5 (Table 1).

[1] = molecular target: T2, TTR in whole human plasma (Homo sapiens, UniProt P02766); assay: Displacement of 125I-T4 from TTR in normal human plasma; assay type: binding; conditions: wild type TTR, 30 min 37° C. with ligand, immunoprecipitation, mean of at least 3 replicates; for pIC50: read-out: D50 plasma
T2 construct: TTR in whole plasma, from individuals homozygous for wild type TTR; from tissue; host or cells: whole human plasma
Protocol: 3.2 Displacement of ^125-T4 from TTR in Normal Human Plasma.
The displacement of ^125I-T4 from TTR in whole plasma, from individuals homozygous for wild type TTR, was studied by incubating plasma with each ligand at increasing concentrations for 30 min at 37° C., further incubation with […] followed by measurement of the radioactivity in the immunoprecipitate obtained with anti-TTR antibodies. […] Percentage binding was plotted against the logarithm of the inhibitor concentration, and D50 (concentration of ligand reducing the binding of T4 by TTR by 50%) was determined using a four parameter dose-response curve with GraphPad Prism 5 (Table 1).

[2] = molecular target: T3, recombinant Val122Ile TTR (Homo sapiens, UniProt P02766, V142I); assay: Mechano-enzymatic fibrillogenesis, TTR aggregation by turbidity at 400 nm; assay type: biochemical; conditions: equimolar ligand, Val122Ile TTR 9 μM, trypsin, 96 h; 100 % = protein without ligand; mean (SD)
T3 construct: the non-covalently associated protomers, of mass 13,761, each contain 127 residues; His6 (N); TEV cleavage site (N); made in house; host or cells: E. coli BL21 (DE3)
Protocol: (§1) Briefly, fibrillogenesis of recombinant Val122Ile TTR at 0.5 mg/ml (9 μM) in PBS, pH 7.4 was carried out in glass vials stirred at 1,400 rpm (IKA magnetic stirrer) and 37° C. in the presence and in the absence of trypsin (5 ng/μl). […] Each ligand was tested at 4 different concentrations (4.5, 9, 18, 36 μM respectively) corresponding to the following drug/TTR molar ratios of 0.5:1, 1:1, 2:1 and 4:1. Several dilutions of the drug stock solutions were made in order to add the same volume of DMSO to each sample. Control samples without drug were added with the same volume of DMSO only. To allow complete binding of ligand by TTR each sample was incubated for 30 min at 37° C. before addition of trypsin. Spectrophotometric turbidity at 400 nm was used to monitor fibril formation over time until it reached a plateau at 96 h. Aggregation of TTR in the presence of equimolar ligand concentrations was quantified as spectrophotometric turbidity at 400 nm as a proportion of 100% for aggregation of the protein in the absence of ligands (Table 2).

[3] = molecular target: T3, recombinant Val122Ile TTR; assay: Mechano-enzymatic fibrillogenesis, TTR amyloid by ThT emission fluorescence; assay type: biochemical; conditions: equimolar ligand, 96 h pellets, normalized to 100 % without ligand, mean (SD)
Protocol: as §1
At the end of the 96 h aggregation, pellets were harvested from each protein sample by 20 min centrifugation at 11,600 g, thoroughly rinsed with PBS to remove non-bound ligand, resuspended with 100 μl PBS, pH 7.4 containing 10 μM ThT in Costar 96-well black-wall plates. Bottom fluorescence values (excitation 440 nm, emission 480 nm) were recorded using a BMG LABTECH FLUostar Omega plate reader. Each value was normalized to the ThT signal of the TTR sample without ligand (Table 2)

Structure (SMILES): Cc1n[nH]c(COCCOCCCOc2c(Cl)cc(CCC(=O)O)cc2Cl)c1CCCOc1cc(C(=O)O)ccc1F [Compound B11, 3-[3-[5-[2-[3-[4-(2-carboxyethyl)-2,6-dichloro-phenoxy]propoxy]ethoxymethyl]-3-methyl-1H-pyrazol-4-yl]propoxy]-4-fluoro-benzoic acid]
- pIC50 (isolated wild type TTR): 6.30
- D50 plasma [1]: no binding

Structure (SMILES): O=C(O)CCc1cc(Cl)c(OCC[C@@H](O)[C@H](O)CCOc2ccc(Nc3ccccc3C(=O)O)cc2Cl)c(Cl)c1 [Compound B20, 2-[4-[(3R,4R)-6-[4-(2-carboxyethyl)-2,6-dichloro-phenoxy]-3,4-dihydroxy-hexoxy]-3-chloro-anilino]benzoic acid]
- pIC50 (isolated wild type TTR): 7.15
- pIC50 [1]: 5.15
- % Aggregation (Turbidity method) [2]: 11.6 (8.30) %
- % Aggregation (Fluorescence method) [3]: 8.54 (6.10) %

Structure (SMILES): O=C(O)Cc1cc(Cl)c(OCCCOCCOc2c(Cl)cc(CC(=O)O)cc2Cl)c(Cl)c1 [Compound B33, reference compound]
- D50 buffer (isolated wild type TTR): No binding
- % Aggregation (Fluorescence method) [3]: 75 (30) %

Structure (SMILES): O=C(O)CCc1cc(Cl)c(OCC[C@@H](O)[C@H](O)CCOc2ccc(-c3nc4ccc(C(=O)O)cc4o3)cc2Cl)c(Cl)c1 [Compound B17, 2-[4-[(3R,4R)-6-[4-(2-carboxyethyl)-2,6-dichloro-phenoxy]-3,4-dihydroxy-hexoxy]-3-chloro-phenyl]-1,3-benzoxazole-6-carboxylic acid]
- pIC50 (isolated wild type TTR): 7.00
- pIC50 [1]: 4.76
- % Aggregation (Turbidity method) [2]: 4.52 (1.08) %
- % Aggregation (Fluorescence method) [3]: 3.86 (2.29) %

Structure (SMILES): O=C(O)COCCOCCOCCOc1c(Cl)cc(Nc2ccccc2C(=O)O)cc1Cl [Compound B5, 2-[4-[2-[2-[2-(carboxymethoxy)ethoxy]ethoxy]ethoxy]-3,5-dichloro-anilino]benzoic acid]
- pIC50 (isolated wild type TTR): 5.34
- pIC50 [1]: 4.18
- % Aggregation (Turbidity method) [2]: 17.3 (14.8) %
- % Aggregation (Fluorescence method) [3]: 28.8 (13.4) %

Structure (SMILES): O=C(O)CCc1cc(Cl)c(OCCCOCCOc2c(Cl)cc(-c3nc4ccc(C(=O)O)cc4o3)cc2Cl)c(Cl)c1 [Compound B28, 2-[4-[2-[3-[4-(2-carboxyethyl)-2,6-dichloro-phenoxy]propoxy]ethoxy]-3,5-dichloro-phenyl]-1,3-benzoxazole-6-carboxylic acid]
- pIC50 (isolated wild type TTR): 7.10
- pIC50 [1]: 4.70
- % Aggregation (Turbidity method) [2]: 9.30 (4.32) %
- % Aggregation (Fluorescence method) [3]: 24.5 (8.90) %

Structure (SMILES): Cc1n[nH]c(COCCCOCCCOc2c(Cl)cc(CCC(=O)O)cc2Cl)c1CCCOc1cc(C(=O)O)ccc1F [Compound B9, 3-[3-[5-[3-[3-[4-(2-carboxyethyl)-2,6-dichloro-phenoxy]propoxy]propoxymethyl]-3-methyl-1H-pyrazol-4-yl]propoxy]-4-fluorobenzoic acid]
- pIC50 (isolated wild type TTR): 5.87
- D50 plasma [1]: no binding
- % Aggregation (Turbidity method) [2]: 17.1 (0.66) %
- % Aggregation (Fluorescence method) [3]: 9.34 (4.36) %

Structure (SMILES): O=C(O)CCc1cc(Cl)c(OCC/C=C/CCOc2c(Cl)cc(Nc3ccccc3C(=O)O)cc2Cl)c(Cl)c1 [Compound B14, 2-[4-[(E)-6-[4-(2-carboxyethyl)-2,6-dichloro-phenoxy]hex-3-enoxy]-3,5-dichloro-anilino]benzoic acid]
- % Aggregation (Turbidity method) [2]: 5.73 (0.50) %
- % Aggregation (Fluorescence method) [3]: 12.6 (3.17) %

Structure (SMILES): O=C(O)CCOCCCOCCCOCCCOc1c(Cl)cc(Nc2ccccc2C(=O)O)cc1Cl [Compound B6, 2-[4-[3-[3-[3-(2-carboxyethoxy)propoxy]propoxy]propoxy]-3,5-dichloro-anilino]benzoic acid]
- pIC50 (isolated wild type TTR): 5.93
- pIC50 [1]: 4.40
- % Aggregation (Turbidity method) [2]: 6.24 (1.71) %
- % Aggregation (Fluorescence method) [3]: 12.0 (4.44) %

Structure (SMILES): O=C(O)CCc1cc(Cl)c(OCCOCCCCOc2c(Cl)cc(Nc3ccccc3C(=O)O)cc2Cl)c(Cl)c1 [Compound B2, 2-[4-[4-[2-[4-(2-carboxyethyl)-2,6-dichloro-phenoxy]ethoxy]butoxy]-3,5-dichloro-anilino]benzoic acid]
- pIC50 (isolated wild type TTR): 7.00
- pIC50 [1]: 5.59
- % Aggregation (Turbidity method) [2]: 5.25 (1.68) %
- % Aggregation (Fluorescence method) [3]: 4.36 (1.51) %

Structure (SMILES): Cc1n[nH]c(COCCCCOCCOc2c(Cl)cc(CCC(=O)O)cc2Cl)c1CCCOc1cc(C(=O)O)ccc1F [Compound B10, 3-[3-[5-[4-[2-[4-(2-carboxyethyl)-2,6-dichloro-phenoxy]ethoxy]butoxymethyl]-3-methyl-1H-pyrazol-4-yl]propoxy]-4-fluoro-benzoic acid]
- pIC50 (isolated wild type TTR): 5.25
- D50 plasma [1]: no binding
- % Aggregation (Turbidity method) [2]: 14.88 (nd) %
- % Aggregation (Fluorescence method) [3]: 16.6 (nd) %

Structure (SMILES): O=C(O)CCc1cc(Cl)c(OCC[C@H](O)[C@@H](O)CCOc2c(Cl)cc(Nc3ccccc3C(=O)O)cc2Cl)c(Cl)c1 [Compound B4, 2-[4-[(3S,4S)-6-[4-(2-carboxyethyl)-2,6-dichloro-phenoxy]-3,4-dihydroxy-hexoxy]-3,5-dichloro-anilino]benzoic acid]
- pIC50 (isolated wild type TTR): 7.15
- pIC50 [1]: 5.36
- % Aggregation (Turbidity method) [2]: 3.52 (1.14) %
- % Aggregation (Fluorescence method) [3]: 4.74 (2.93) %

Structure (SMILES): O=C(O)CCc1cc(Cl)c(OCOCCCOc2c(Cl)cc(Nc3ccccc3C(=O)O)cc2Cl)c(Cl)c1 [Compound B8, 2-[4-[3-[[4-(2-carboxyethyl)-2,6-dichloro-phenoxy]methoxy]propoxy]-3,5-dichloro-anilino]benzoic acid]
- pIC50 (isolated wild type TTR): 5.69
- D50 plasma [1]: no binding
- % Aggregation (Turbidity method) [2]: 6.35 (2.73) %
- % Aggregation (Fluorescence method) [3]: 11.7 (3.67) %

Structure (SMILES): O=C(O)CCc1cc(Cl)c(OCC[C@H](O)[C@@H](O)CCOc2c(Cl)cc(Nc3ncccc3C(=O)O)cc2Cl)c(Cl)c1 (stereo in doubt) [Compound B3A, 2-[4-[(3S,4S)-6-[4-(2-carboxyethyl)-2,6-dichloro-phenoxy]-3,4-dihydroxy-hexoxy]-3,5-dichloro-anilino]pyridine-3-carboxylicacid]
- % Aggregation (Turbidity method) [2]: 5.76 (2.32) %
- % Aggregation (Fluorescence method) [3]: 8.63 (5.17) %

Structure (SMILES): O=C(O)CCc1cc(Cl)c(OCC/C=C/CCOc2c(Cl)cc(Nc3ncccc3C(=O)O)cc2Cl)c(Cl)c1 [Compound B13, (E)-2-((4-((6-(4-(2-carboxyethyl)-2,6-dichlorophenoxy)hex-3-en-1-yl)oxy)-3,5-dichlorophenyl)amino)nicotinic acid]
- % Aggregation (Turbidity method) [2]: 5.31 (0.62) %
- % Aggregation (Fluorescence method) [3]: 9.76 (4.50) %
